In patent US5126258A (priority 1988, dated 1992):

Experiments:
44A2 = assay: Hydrolysis of reactant ligands by receptor 44A2; assay type: biochemical, mouse; settings: for hydrolysis by 44A2: pH 8.0, receptor/ligand uM, time h: 17 1/10, 2, 18 2/10, 24, 20 2/10, 0.33, 5 1/5, 0.33, 22 5/10, 3.5, preliminary
Description: (§1) ^1 Preliminary initial hydrolyses shown as the percentage of admixed
(§2) reactant ligand consumed for catalyzed and spontaneous hydrolyses. "--" =
(§3) No hydrolysis observed. "NT" = Not tried. All reactions were carried out
(§4) at pH 8.0 in a 50 mM phosphate buffer unless otherwise noted. Hydrolytic
(§5) percentages were determined by HPLC using a Hitachi model 655A12 liquid
(§6) chromatograph with a C18 Vydac 201TP54 column, except as noted below.
(§7) Mixtures of acetonitrile a nd water containing 0.1 percent trichloroaceti
(§8) acid [28:72-50:50 (v/v)] were used as elutant. Hydrolyses of Compounds 5
(§9) and 20 were assayed using fluorescence data.
(§10) ^2 Concentrations of receptor molecules (Rec.) and reactant ligands
(§11) (Lig.) in micromolar units, presuming a molecular weight of 150,000
(§12) daltons for each receptor molecule.
(§13) ^3 Reactant ligand (Lig.) used as substrate.
(§14) ^4 Time in hours that the reaction was permitted to take place.
(§15) ^5 Spontaneous hydrolytic percentages for the time period indicated.
(§16) ^6 Reaction carried out at pH 7.2 in a 50 mM phosphate buffer.

13E10 = assay: Hydrolysis of reactant ligands by receptor 13E10; assay type: biochemical, mouse; settings: for hydrolysis by 13E10: pH 8.0, receptor/ligand uM, time h: 17 1/10, 2, 18 2/10, 24, 20 2/10, 0.33, 5 1/5, 0.33, 22 5/10, 3.5, preliminary
Description: as §1, §2, §3, §4, §5, §6, §7, §8, §9, §10, §11, §12, §13, §14, §15, §16

21G2 = assay: Hydrolysis of reactant ligands by receptor 21G2; assay type: biochemical, mouse; settings: for hydrolysis by 21G2: pH 8.0, receptor/ligand uM, time h: 17 1/10, 2, 18 2/10, 24, 20 2/10, 0.33, 5 1/5, 0.33, 22 5/10, 3.5, preliminary
Description: as §1, §2, §3, §4, §5, §6, §7, §8, §9, §10, §11, §12, §13, §14, §15, §16

1209 = assay: Hydrolysis of reactant ligands by receptor 12C9 (column head prints 1209); assay type: biochemical, mouse; settings: for hydrolysis by 1209: pH 8.0, receptor/ligand uM, time h: 17 1/10, 2, 18 2/10, 24, 20 2/10, 0.33, 5 1/5, 0.33, 22 5/10, 3.5, preliminary
Description: as §1, §2, §3, §4, §5, §6, §7, §8, §9, §10, §11, §12, §13, §14, §15, §16

[1] = system: eight monoclonal receptors 21G2, 7E5, 37G2, 13E10, 12C9, 44A2, 17G8 and 22F5; assay: Catalyzed hydrolysis of reactant ligands by the eight QPN1 monoclonal receptors, summary; assay type: biochemical, mouse; settings: pH 8.0
Description: Mice were hyperimmunized with the Compound 13-KLH conjugate over a three to four week time period. Sera were assayed in an ELISA using a Compound 13-BSA conjugate bound to microtiter plate wells as the solid-phase antigen. Cloned hybridomas were also screened using that ELISA assay.
Each of those catalyses could be inhibited by an appropriate analog-ligand. Thus, a relatively high percentage of induced monoclonal receptors was capable of catalyzing an esterolytic reaction. The reason for this relatively high percentage of useful receptors being induced is unknown, but could be due to the presence of phosphonamidate group nitrogen atom, as compared to a phosphonate oxygen atom, or to the quinoline nucleus of the analog-ligand. Those eight catalytic monoclonal receptors and the hybridomas that secrete them are identified by the laboratory designations "QPN1 7E5", "QPN1 12C9", "QPN1 13E10", "QPN1 17G8", "QPN1 21G2", "QPN1 22F5", "QPN1 37G2" and QPN1 44A2. The prefix "QPNI" is sometimes omitted herein when discussing these hybridomas and receptors.
Amide cleavage for Compounds 14 and 15 was assayed by analyzing for the production of free aminoquinaldine or aminonaphthalene by measuring the increase in the azo dye that results from derivatizing the free aminoquinaldine or aminonapthalene with a diazotization reagent.
Catalysis reactions were conducted by preparing a reaction admixture of 100 microliters (ul) total volume containing 5 micromolar (uM) monoclonal antibody, 50-75 uM amide reactant ligand substrate and a buffer described hereinafter. The buffer included in the above admixture varied depending upon the pH utilized as follows: pH 5, 10 […] sodium acetate, 10 mM sodium chloride; pH 7.2, 10 mM sodium phosphate, 0.15 molar (M) sodium chloride; pH 8.0; 50 mM sodium phosphate. The amide-containing substrates screened in this assay were added to the above admixture in 1 ul of a 100-fold concentrated stock solution of dimethyl formamide (DMF). Monoclonal antibody was added to the above admixture from a concentrated stock solution. The resulting admixture was placed into the well of a 96 well flat bottom microtiter plate (Costar, Cambridge, Mass.) and maintained in a moist vapor environment chamber at 23 degrees C. The production of aminoquinaldine or aminonaphthalene was then assayed as described below after 2,3,5, or 6 days.
The aminoquinaldine or aminonapthalene product produced by the catalyzed reaction was measured by first admixing 20 ul of 5M HCl, 80 ul acetone and 10 ul 0.5% (w/v) sodium nitrite to the reaction admixture to form a second admixture and maintaining that second admixture for 3 minutes at room temperature. Thereafter, 10 ul 2.5% (w/v) ammonium sulfamate was added to form a third admixture that was maintained for 2 minutes at room temperature. A still further 10 ul of 0.5% (w/v) N-(1-napthyl)ethylenediamine dihydrochloride was added to form a fourth admixture that was then maintained for 15 minutes at room temperature. Thereafter the resulting azo dye present in the fourth admixture was measured by absorbance spectroscopy at 540 nanometers (nm) for aminoquinaldine using a Model EL 309 Automated Microplate Reader (Bio-Tek Instruments, Winooski, Vt.).

17G8 = assay: Hydrolysis of reactant ligands by receptor 17G8; assay type: biochemical, mouse
Description: as §1, §2, §3, §4, §5, §6, §7, §8, §9, §10, §11, §12, §13, §14, §15, §16

37G2 = assay: Hydrolysis of reactant ligands by receptor 37G2; assay type: biochemical, mouse; settings: for hydrolysis by 37G2: pH 8.0, receptor/ligand uM, time h: 17 1/10, 2, 18 2/10, 24, 20 2/10, 0.33, 5 1/5, 0.33, 22 5/10, 3.5, preliminary
Description: as §1, §2, §3, §4, §5, §6, §7, §8, §9, §10, §11, §12, §13, §14, §15, §16

[2] = Spontaneous (uncatalyzed, background) hydrolysis; assay type: physicochemical; settings: for Spon. (spontaneous hydrolysis): pH 8.0, 50 mM phosphate, time (h): 17 2, 18 24, 20 0.33, 5 0.33, 22 3.5
In short: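 Background (uncatalyzed) hydrolysis of ester substrates measured in 50 mM phosphate buffer, pH 8.0, without antibody, as percentage of reactant consumed over the stated period. Quantified by C18 HPLC (acetonitrile/water with 0.1% trichloroacetic acid); Compounds 5 and 20 followed by fluorescence (ex 355 nm, em 455 nm).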

[3] = pH 7.2, 1 uM receptor, 10 uM ligand, 2 h

## O=C(Cc1ccc(NC(=O)C(F)(F)F)cc1)Oc1ccc2ccc(=O)oc2c1 [Compound 5]
44A2
  hydrolysis by 44A2: 47 percentage of reactant ligand
13E10
  hydrolysis by 13E10: 13 percentage of reactant ligand
21G2
  hydrolysis by 21G2: 43 percentage of reactant ligand
1209
  hydrolysis by 1209: 11 percentage of reactant ligand
[1]
  receptors (of eight) that catalyzed hydrolysis of the compound: all of the receptors catalyzed hydrolysis
17G8; pH 8.0, receptor/ligand uM, time h: 18 2/10, 24, 20 2/10, 0.33, 5 1/5, 0.33, 22 5/10, 3.5, preliminary
  hydrolysis by 17G8: 16 percentage of reactant ligand
37G2
  hydrolysis by 37G2: 12 percentage of reactant ligand
[2]; above pH 8.0
  spontaneous rate of hydrolysis: rapid
[2]
  Spon. (spontaneous hydrolysis): 5 percentage of reactant ligand

## CC(=O)Nc1ccc(CC(=O)Oc2cccc3ccccc23)cc1 [Compound 17]
44A2; [3]
  hydrolysis by 44A2, pH 7.2: 19 percentage of reactant ligand
44A2
  hydrolysis by 44A2: 62 percentage of reactant ligand
13E10; [3]
  hydrolysis by 13E10, pH 7.2: 33 percentage of reactant ligand
13E10
  hydrolysis by 13E10: 32 percentage of reactant ligand
21G2; [3]
  hydrolysis by 21G2, pH 7.2: 10 percentage of reactant ligand
21G2
  hydrolysis by 21G2: 10 percentage of reactant ligand
1209; [3]
  hydrolysis by 1209, pH 7.2: 35 percentage of reactant ligand
1209
  hydrolysis by 1209: 55 percentage of reactant ligand
[1]
  receptors (of eight) that catalyzed hydrolysis of the compound: all of the receptors catalyzed hydrolysis
17G8; [3]
  hydrolysis by 17G8, pH 7.2: 15 percentage of reactant ligand
37G2; [3]
  hydrolysis by 37G2, pH 7.2: 39 percentage of reactant ligand
37G2
  hydrolysis by 37G2: 60 percentage of reactant ligand
[2]; pH 7.2, 50 mM phosphate, 2 h
  Spon. (spontaneous hydrolysis), pH 7.2: 4 percentage of reactant ligand
[2]
  Spon. (spontaneous hydrolysis): 7 percentage of reactant ligand
